{"source": "patent US20140286868A1", "about": "“IMMORTALIZED HUMAN PROSTATE CELL LINES” (Tuskegee University, priority 2011, published 2014)", "key": {"RC-77T/E cells": {"tested_on": "RC-77T/E cells", "test": "Androgen sensitivity: cell proliferation by MTT assay, RC-77T/E cells", "assay_type": "cell-based, human", "conditions": "4 days", "experimental": "(§1) Since androgen receptor expression was observed both cell lines, an experiment was conducted to determine the effects of androgen stimulation on the growth of RC-77N/E and RC-77T/E cells. Cells were grown in serum-free K-SFM at different doses of Methyltrienolone (R1881), a synthetic androgen, for 4 days.\n(§2) In this experiment, 2×10^4 cells per well of each line were grown in serum-free K-SFM with 0.1% BSA in the presence of 0, 0.1, 1.0, 10.0 and 100.0 nM for 4 days. K-SFM was supplemented with or without Methyltrienolone (R1881) (obtained from Perkin-Elmer, Waltham, Mass.), at concentrations of 0.1, 1, 10 and 100 nM, respectively. Cell proliferation was determined by MTT assay according to a procedure as generally described by Wells et al. (“Luteinizing hormone-releasing hormone agonist limits DU-145 prostate cancer growth by attenuating epidermal growth factor receptor signaling.” Clin. Cancer Res. 8: 1251-1257, 2002.).\n(§3) The results from this experiment are illustrated in the chart of FIG. 4, with percent growth being determined by the number of cell counts being expressed as the mean value of triplicate observation. […] Further, the RC-77T/E cells were found responsive to 0.1 nM R1881, while RC-77N/E cells were only responsive at the higher dosage of 1.0 nM."}, "RC-77N/E cells": {"tested_on": "RC-77N/E cells", "test": "Androgen sensitivity: cell proliferation by MTT assay, RC-77N/E cells", "assay_type": "cell-based, human", "conditions": "4 days", "experimental": "as §1, §2, §3"}, "[1]": {"conditions": "1.0 nM R1881, serum-free K-SFM with 0.1% BSA"}, "[2]": {"conditions": "100.0 nM R1881, serum-free K-SFM with 0.1% BSA"}}, "data": [{"smiles": "C[C@]1(O)CC[C@H]2[C@@H]3CCC4=CC(=O)CCC4=C3C=C[C@@]21C", "note": "[R1881, Methyltrienolone]", "values": [{"measurement": "cell growth response to androgen stimulation", "setting": "RC-77T/E cells; 0.1 nM R1881, serum-free K-SFM with 0.1% BSA", "value": "responsive"}, {"measurement": "cell growth", "setting": "RC-77T/E cells; [1]", "value": "Significant stimulation in cell growth"}, {"measurement": "cell growth", "setting": "RC-77T/E cells; [2]", "value": "inhibition of cell growth"}, {"measurement": "cell growth", "setting": "RC-77N/E cells; [1]", "value": "Significant stimulation in cell growth"}, {"measurement": "cell growth", "setting": "RC-77N/E cells; [2]", "value": "inhibition of cell growth"}]}]}
